Test results as given in US20220133697A1, “INJECTABLE FORMULATIONS” (Aldeyra Therapeutics, Inc., priority 2018, published 2022).

Tests used:
[1] = test system: endotoxin induced uveitis; test: rat model of endotoxin induced uveitis, ocular exam scores; assay type: in vivo, female Lewis rats; conditions: for retina-choroid scores, within-subject statistical analysis (treatment and time): IVT treatment, compared to vehicle control
Experimental: (§1) An in vivo study was conducted to assess the efficacy of intravitreal administration of Compound I-5 and I-22 in a rat model of endotoxin induced uveitis, one of the most appropriate models for the study of non-infectious uveitis (NIU) (Smith et al., 1998, Immunol Cell Biol. 76(6):497-512) (Toxikon Study 16-04078-N1). Ocular inflammation was induced in female Lewis rats (n=10/group) by a single, foot pad injection of lipopolysaccharide (LPS) (100 μL) (Herbort et al., 1988, Graefes Arch Clin Exp Ophthalmol. 226(6):553-8). Compound I-5 or I-22 (50 μg) was topically administered (TO) to the eye at hours 1, 3, 7, 10, and 17, after LPS induction, or by a single intravitreal (IVT) injection (25 μg) 1 hour after LPS induction (n=10 per group). Ocular exams were performed six and 24 hours after LPS injection. Anterior segments were scored using a combined Draize and McDonald-Shattuck scoring system, and posterior segments were scored using 0 to 1 (vitreous, optic disc, retinal vasculature) and 0 to 4 (retinal and choroidal hemorrhage, exudation, and detachment) scales. Statistical significance from vehicle control was determined by ANOVA, followed by Tukey's post hoc test. The test compound, e.g., Compound I-22 (5 mg/mL), was administered intravitreally into each eye (25 μg/eye) within one hour of LPS administration. Balanced salt solution (BSS) served as a vehicle control. Retinal exams were performed prior to study start and six and 24 hours following LPS administration and scored using a Combined Draize and McDonald Shadduck scoring system, based on assessments of: (a) Retinal vasculopathy; (2) Retinal hemorrhage, exudate or detachment; and (3) Retinal hemorrhage, exudate or detachment.

[2] = body weight and adverse effects during 56 days daily treatment in the abcr-/- mouse study; assay type: in vivo, mice; conditions: daily treatment for 56 days
Experimental: (§2) A mouse knockout model (abcr−/−) of macular degeneration (MD) was used to test the activities of Compound I-5 and Compound I-22. The retinal transport protein, ABCA4, is not expressed in these mice, allowing retinaldehdye to escape the light cycle and form a toxic metabolite with phosphatidylethanolamine, N-retinylidene-phosphatidylethanolamine (A2E). Mice were treated intraperitoneally (IP) for 56 days with 10 mg/kg Compound I-5 (n=24), Compound I-22 (n=24), or vehicle (n=22), starting at week 10 to 12 of life. An untreated control group (n=12) was sacrificed on the first day of dosing. After treatment, A2E concentrations in retinas were measured by HPLC. Statistical significance from vehicle control was determined by t-test.

A2E = A2E formation in retinas of abcr-/- mouse knockout model of macular degeneration; assay type: in vivo, mice; conditions: 10 mg/kg intraperitoneally daily for 56 days, HPLC, compared with vehicle controls
Experimental: as §2

[3] = dark adaptation, separate study; assay type: in vivo; conditions: systemic (IP) doses 5-fold greater than the effective dose in the A2E study, 56 days; data not shown
MDA adducts = MDA adducts in the LPS-induced uveitis model; assay type: in vivo, female Lewis rats; conditions: after TO and IVT administration; data not shown
Experimental: as §1, with “Compound I-5 or I-22 (50 μg) was topically administered (TO) to the eye at hours 1, 3, 7, 10, and 17, after LPS induction, or by a single intravitreal (IVT) injection (25 μg) 1 hour after LPS induction (n=10 per group). Ocular exams were performed six and 24 hours after LPS injection.” left out, “The test compound, e.g., Compound I-22 (5 mg/mL), was administered intravitreally into each eye (25 μg/eye) within one hour of LPS administration. Balanced salt solution (BSS) served as a vehicle control.” left out

diabetic macular edema = test: rat model of diabetic macular edema (STZ-induced diabetes), retinal histology scores; assay type: in vivo
Experimental: To assess the effect of Compound I-22 in a rat model of diabetic macular edema (DME), Type 1 diabetes was induced in male brown Norway rats by intraperitoneal administration of streptozotocin (STZ; 55 mg/kg). Forty days after STZ administration, animals were tested for diabetes by testing blood glucose levels.
Animals with diabetes were assigned to groups of ten, to receive either vehicle (HPβCD) or Compound I-22. […] On Day 41 (about Week 6) after STZ induction, animals received a single intravitreal injection of Compound I-22 (3.5 μL; 17.5 μg) or vehicle per eye. On Day 57 (about Week 8) after STZ induction, animals received a second intravitreal injection of Compound I-22 or vehicle.
On Day 70 (about Week 10) after STZ induction, animals were euthanized and retinas were processed for histological examination. Sections (3 to 5 μm) were stained with hematoxylin and eosin and evaluated by light microscopy. Changes in retinal thickness were scored on a 0 to 4 scale, with 0 meaning no changes, 1 meaning minimal changes, 2 meaning mild changes, 3 meaning moderate changes, and 4 meaning severe changes, relative to non-diabetic controls. Six microscopic sections were examined for each eye, and retinas were also assessed and scored by a pathologist for changes in vascularity and neutrophil infiltration.

[4] = single intravitreal (IVT) injection 25 μg 1 hour after LPS, vs. vehicle
[5] = topical (TO) 50 μg at hours 1, 3, 7, 10, 17 after LPS, at 6 hours and 24 hours, compared to vehicle

effect on dark adaptation [3] | Compound | retina-choroid scores, within-subject statistical analysis (treatment and time) [1] | ocular exam scores (total ocular, anterior chamber and retina-choroid inflammation) [1, 4] | ocular exam scores (total ocular, anterior chamber and retina-choroid inflammation) [1, 5] | drug-related adverse effects [2] | effect on body weight [2] | decrease in formation of A2E (A2E) [%] | MDA adducts (MDA adducts) | reduction in retinal vascularity compared to vehicle, statistical significance (diabetic macular edema; intravitreal 17.5 μg per eye on Day 41 and Day 57 after STZ, FIG. 10) | neutrophil infiltration (score 0 to 4) (diabetic macular edema; intravitreal 17.5 μg per eye on Day 41 and Day 57 after STZ, compared to vehicle, p<0.01) | decrease in retinal vascularity score (diabetic macular edema; intravitreal 17.5 μg per eye on Day 41 and Day 57 after STZ, compared to vehicle, p<0.05) [%] | retinal thickness (score 0 to 4) (diabetic macular edema; intravitreal 17.5 μg per eye on Day 41 and Day 57 after STZ, histology Day 70, p<0.01) | tolerability in the retina (diabetic macular edema; intravitreal injection, rat DME model) | retinal inflammation (diabetic macular edema; measured by retinal thickness, neutrophil infiltration and retinal vascular changes)
no effect | CC(C)(O)c1nc2ccc(Cl)cc2cc1N [Compound I-5] | significantly improved | significantly improved | significantly improved | nor were any drug-related adverse effects observed | no effect | 71 | Small, although not significant, reductions |  |  |  |  |  | 
 | CC(C)(O)c1cc2oc(-c3ccccc3)nc2cc1N [Compound I-22] | significantly improved | significantly improved | significantly improved | nor were any drug-related adverse effects observed | no effect | 69 | Small, although not significant, reductions | not statistically significant | significant reduction | 36 | significant reduction | well tolerated | decreased
